The target of one test is T1, hTRPA1 (Homo sapiens, UniProt O75762).
T1 construct: YFP or GFP; expressed in transfected cells; host or cells: HEK293T
In words: Whole-cell current recordings, hTRPA1. It is filed as cell-based. Conditions: 100 μM HCQ; current activated by 500 μM allyl isothiocyanate. Here is the method: To elucidate the specificity of HCQ inhibition on TRPV3, we conducted whole-cell current recordings on other known pruritus-related TRP channels, such as hTRPA1, mTRPV1, mTRPV4, and mTRPM8 (Fig. 3, A and F). […] Because of the relatively larger inhibition of HCQ on mTRPM8 current, we tested the concentration dependence of HCQ on mTRPM8 channels.
HEK293T cells are cultured using Dulbecco's modified Eagle's medium containing 10% fetal bovine serum and 1% penicillin-streptomycin in a cell incubator with 5% CO2 at 37 °C. Plasmids of murine TRPV1, TRPV4, TRPM8, and human TRPV3, TRPA1 are labeled with YFP or GFP as indicators for subsequent electrophysiological recordings. Complementary DNA constructs of ion channels were transiently transfected with Lipofectamine 3000 (Invitrogen). And 12 to 18 h after transient transfection, electrophysiological recordings were performed.
Patch-clamp recordings were carried out with a HEKA EPC10 amplifier controlled by PatchMaster software (HEKA; https://www.heka.com/products/products_main.html#soft_pm) ([36]). Patch pipettes were prepared from borosilicate glass and fire-polished to the resistance of 3 to 8 MΩ by P-97 puller for whole-cell recordings. For single-channel recordings, patch pipettes were fire-polished to a higher resistance of 6 to 10 MΩ. […]

Test [1] addresses T2, TRPV3 I637 alanine mutation (Homo sapiens, UniProt Q8NET8, I637A).
T2 construct: YFP or GFP; expressed in transfected cells; host or cells: HEK293T
T2 sequence (Q8NET8 1-790 I637A): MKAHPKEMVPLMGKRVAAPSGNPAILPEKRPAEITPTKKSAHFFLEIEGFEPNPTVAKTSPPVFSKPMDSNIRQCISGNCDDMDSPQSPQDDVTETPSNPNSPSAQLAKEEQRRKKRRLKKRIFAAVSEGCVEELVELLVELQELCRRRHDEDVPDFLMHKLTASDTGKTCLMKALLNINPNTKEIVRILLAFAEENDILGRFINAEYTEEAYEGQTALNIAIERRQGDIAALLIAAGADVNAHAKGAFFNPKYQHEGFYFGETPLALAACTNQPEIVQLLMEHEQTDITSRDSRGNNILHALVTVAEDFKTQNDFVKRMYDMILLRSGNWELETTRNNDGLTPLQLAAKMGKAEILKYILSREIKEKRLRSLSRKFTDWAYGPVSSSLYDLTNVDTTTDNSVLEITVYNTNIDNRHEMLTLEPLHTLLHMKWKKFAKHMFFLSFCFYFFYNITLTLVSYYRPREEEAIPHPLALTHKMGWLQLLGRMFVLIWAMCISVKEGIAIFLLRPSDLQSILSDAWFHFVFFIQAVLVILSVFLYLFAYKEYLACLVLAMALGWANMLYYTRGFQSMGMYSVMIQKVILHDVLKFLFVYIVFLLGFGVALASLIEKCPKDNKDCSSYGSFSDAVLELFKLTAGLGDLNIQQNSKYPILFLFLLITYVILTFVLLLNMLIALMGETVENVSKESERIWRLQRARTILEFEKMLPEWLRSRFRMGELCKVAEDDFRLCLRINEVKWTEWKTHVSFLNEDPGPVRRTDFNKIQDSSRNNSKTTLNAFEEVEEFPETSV
In words: Whole-cell recording of TRPV3 I637 alanine mutant. The format is cell-based. Conditions: 1 mM 2-APB, ± 80 mV. An excerpt:
As we mentioned above, HCQ may act as a pore blocker of TRPV3. To probe the binding configuration of HCQ to TRPV3, we carried out molecular docking using Rosetta suite (https://rosettacommons.org) ([21]) and validated the docking models with point mutations in TRPV3 (Fig. 4A). […] Furthermore, when we introduced L670A to L591A mutant, we also observed a left shift on the concentration–response curve on this double mutant as compared to L591A mutant (Fig. 4H).
Figure 4 Residues of the pore domain are critical for HCQ inhibition on TRPV3.A, left panel, docking model of HCQ to the pore domain of TRPV3 structure (6uw4). Right panels, top view and side view of the HCQ-binding pocket. B-J, representative whole-cell recording of TRPV3 and mutants in response to 1 mM 2-APB, the mixture of 1 mM 2-APB and concentration gradients of HCQ with the holding potential of ± 80 mV. K, concentration–response curves of HCQ in WT TRPV3 and mutants (n = 3–5 cells). L, quantification of the inhibitory ratio of HCQ (100 μM) on WT, L591A, and N671Q. […]
All data from whole-cell recordings were analyzed in Igor Pro (WaveMetrics). IC50 values were determined by fitting the Hill equation to concentration-response relationships. […]

Structures are written as SMILES.

T1 sequence (O75762 whole entry): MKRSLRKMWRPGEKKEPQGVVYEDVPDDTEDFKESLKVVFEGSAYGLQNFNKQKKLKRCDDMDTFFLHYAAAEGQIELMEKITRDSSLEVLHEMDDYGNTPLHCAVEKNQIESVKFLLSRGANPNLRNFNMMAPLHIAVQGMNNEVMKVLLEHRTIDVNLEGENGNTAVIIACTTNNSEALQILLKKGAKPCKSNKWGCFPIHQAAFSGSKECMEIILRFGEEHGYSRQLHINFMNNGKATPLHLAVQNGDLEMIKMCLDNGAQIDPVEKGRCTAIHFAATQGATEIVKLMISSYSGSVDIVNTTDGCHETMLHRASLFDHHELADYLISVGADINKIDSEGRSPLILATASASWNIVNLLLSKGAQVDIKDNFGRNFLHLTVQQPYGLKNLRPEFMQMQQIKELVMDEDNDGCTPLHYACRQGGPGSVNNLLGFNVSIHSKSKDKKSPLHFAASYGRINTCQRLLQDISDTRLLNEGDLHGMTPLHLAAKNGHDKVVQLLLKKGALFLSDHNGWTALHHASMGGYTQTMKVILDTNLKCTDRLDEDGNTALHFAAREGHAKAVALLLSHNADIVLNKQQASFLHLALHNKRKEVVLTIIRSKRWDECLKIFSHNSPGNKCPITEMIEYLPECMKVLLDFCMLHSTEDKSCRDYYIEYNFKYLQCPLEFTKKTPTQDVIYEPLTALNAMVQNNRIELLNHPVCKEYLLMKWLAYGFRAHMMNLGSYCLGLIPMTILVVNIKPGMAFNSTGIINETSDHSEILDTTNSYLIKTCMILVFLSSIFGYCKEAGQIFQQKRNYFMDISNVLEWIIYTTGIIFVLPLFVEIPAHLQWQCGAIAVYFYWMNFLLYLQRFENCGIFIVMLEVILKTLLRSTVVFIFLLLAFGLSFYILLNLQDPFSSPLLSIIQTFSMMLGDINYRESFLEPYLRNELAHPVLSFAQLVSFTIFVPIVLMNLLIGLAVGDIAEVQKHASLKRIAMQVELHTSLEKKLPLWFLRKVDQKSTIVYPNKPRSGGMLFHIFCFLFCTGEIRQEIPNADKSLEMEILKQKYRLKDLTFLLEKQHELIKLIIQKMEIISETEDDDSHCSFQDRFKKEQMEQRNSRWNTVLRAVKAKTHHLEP

What is called IC50 is the point on the concentration scale where inhibition reaches its midpoint. The low end stands for greater potency, the high end for weaker potency. Regarding `CCN(CCO)CCCC(C)Nc1ccnc2cc(Cl)ccc12` (centres unmarked) [HCQ, hydroxychloroquine], the “reduction of hTRPA1 current” value at hTRPA1 is 11.37% ± 4.10%. This molecule yielded an IC50 in test [1] of 140 ± 20 nM.
